These are literature values, as cited in US20100047803A1, “BIOMARKERS FOR ACETAMINOPHEN TOXICITY” (priority 2008, published 2010).

For series [1] the following is noted: administration after hepatic failure has developed.
For series [2], the system named is CYP2E1, CYP1A2, and CYP3A4. The settings on record: by CYP2E1, CYP1A2, and CYP3A4.

As for `CC(=O)N[C@@H](CS)C(=O)O` [N-acetylcysteine], the reduction in mortality in series [1] is 21-28%.

For the compound `CC(=O)Nc1ccc(O)cc1` [acetaminophen, Acetaminophen], the “share of acetaminophen converted to NAPQI” value in series [2] is on record as 5 to 9%.
